Values after ≈ are worked out from the molar mass of the structure shown.
Experiments:
marine bacteria = test: Bacterial adhesion assay, whole panel of ten strains; type: cell-based, 10 marine bacterial strains; settings: tested up to 10 μg/mL, active = MIC of 10 μg/mL or below
Text: (§1) Cyprid larvae of B. improvisus were reared in a laboratory cultivating system at Tjärnö Marine Biological Laboratory, University of Gothenburg, Sweden, as previously described by Berntsson et al. ([2000]). Four pure, but non-axenic, marine microalgae (obtained from Algobank, Caen, France) and 10 marine bacterial strains were used (Table 1) as representative microfoulers. These strains represent fouling species encountered in both estuarine and marine environments (Moodie et al. [2017b]). The bacteria were grown at 26 °C in a marine medium, composed of 0.5% peptone (neutralized bacteriological peptone, Oxoid Ltd.) in filtered (Whatman 1001–270, pore size 11 μm) natural seawater. Microalgae were grown and maintained at 22 °C in F/2 medium.
(§2) Bacterial strain adhesion and growth were determined according to the methods of Thabard et al. ([2011]). Bacterial suspensions (100-μL aliquots, 2 × 10^8 colony forming units/mL) were aseptically added to the compound containing microplate wells (10–0.01 μg/mL), and the plates were incubated for 48 h at 26 °C. Media only was used as a blank. Bacterial growth was monitored spectroscopically at 630 nm. The minimal inhibitory concentration (MIC) for bacterial growth was defined as the lowest concentration which results in a decrease in OD. After 48-h incubation time, the bacterial adhesion assay was conducted by emptying the wells and rinsing with sterile seawater (100 μL) to remove non-attached cells, and air-drying at room temperature. The residual bacterial biofilm was stained with aqueous crystal violet (100 μL, 0.3% v/v) and the OD measured at 595 nm (Sonak and Bhosle [1995]). […] If inhibition was observed, toxicity tests were conducted. The well contents were transferred into a flask of fresh media, and growth was measured after 5 days of additional incubation. The mode of action was deemed biostatic if an increase in OD was measured at 595 nm (Moodie et al. [2017a]).

Vibrio aestuarianus [1] = test: Bacterial adhesion assay (crystal violet, OD 595 nm); type: cell-based; settings: 48 h, read-out: MIC against the adhesion of marine bacteria, V.a.
Text: as §1, §2

microalgae = test: Microalgal adhesion and growth, whole panel of four species; type: cell-based, four marine microalgae; settings: 10–0.01 μg/mL tested
Text: as §1
(§3) Microplates containing the compounds in ranging concentrations (10–0.01 μg/mL) were prepared from MeOH stock solutions as previously described (Trepos et al. [2014]; Moodie et al. [2017a]). Microalgal stock solutions were prepared using the chlorophyll analysis methodology of Chambers et al. ([2011]). The pretreated microplate wells were treated with 100 μL of the algal stock solutions (0.1 mg chlorophyll a/mL). The plates were then incubated for 5 days at 20 °C under constant light exposure (140 μmol m^−2 s^−1). Both microalgal adhesion and growth inhibition were measured. Growth was determined by analysis of liberated chlorophyll a after centrifugation and methanol addition. Chlorophyll a was quantified fluorometrically. MIC value for algal growth was defined as the lowest concentration yielding a decrease in chlorophyll a content. Microalgal adhesion was determined in an analogous manner where the non-attached algal cells were removed prior to methanol addition (100 μL), releasing chlorophyll a from the remaining algal biofilms. The MIC for adhesion was defined as the lowest compound concentration causing a reduction in […]. Toxicity experiments were performed in an analogous manner to those described for the bacterial assays.

[2] = system: Balanus improvisus cyprid larvae; test: whole plant or invertebrate; type: in vivo; settings: for IC50: Amphibalanus improvisus, 120 h, read-out: IC50 (cyprid settlement inhibition)
Text: as §1
Stock solutions of compounds in DMSO were serially diluted in untreated polystyrene Petri dishes containing 10 mL of filtered (0.2 μm) seawater, affording final concentrations ranging from 0.1 to 10 μg/mL. Freshly molted balanide cyprids (18–22) were added to each Petri dish and incubated at ambient temperature (20–25 °C) for 5 days. Cyprid metamorphosis was assessed using a dissecting microscope where the numbers of juvenile settled, free-swimming, and dead cyprids were noted. Initial compound screening was conducted at 5 μg/mL, and full IC50 determination was performed only on compounds displaying > 50% inhibition at that concentration. The IC50 was defined as the concentration preventing 50% of the cyprid settlement on the Petri dish surface. Each concentration was replicated four times (n = 4), and dishes containing 0.1% of DMSO were used as negative controls. The commercial AF agent Sea-nine™ was employed as a positive control.

Vibrio aestuarianus [3] = test: Bacterial growth assay (OD 630 nm); type: cell-based; settings: 48 h incubation, 10–0.01 μg/mL tested, read-out: MIC against the growth of marine bacteria, V.a.
Text: as §1, §2

Vibrio natriegens [4] = test: Bacterial growth assay (OD 630 nm); type: cell-based; settings: 48 h incubation, 10–0.01 μg/mL tested, read-out: MIC against the growth of marine bacteria, V.n.
Text: as §1, §2

[5] = system: Pseudoalteromonas elyakovii; test: Bacterial growth assay (OD 630 nm); type: cell-based; settings: 48 h incubation, 10–0.01 μg/mL tested, read-out: MIC against the growth of marine bacteria, P.e.
Text: as §1, §2

Roseobacter litoralis [6] = test: Bacterial growth assay (OD 630 nm); type: cell-based; settings: 48 h incubation, 10–0.01 μg/mL tested, read-out: MIC against the growth of marine bacteria, R.l.
Text: as §1, §2

Vibrio carchariae [7] = test: Bacterial growth assay (OD 630 nm); type: cell-based; settings: Vibrio harveyi, 48 h incubation, 10–0.01 μg/mL tested, read-out: MIC against the growth of marine bacteria, V.c.
Text: as §1, §2

Vibrio proteolyticus [8] = test: Bacterial growth assay (OD 630 nm); type: cell-based; settings: 48 h incubation, 10–0.01 μg/mL tested, read-out: MIC against the growth of marine bacteria, V.p.
Text: as §1, §2

Halomonas aquamarina [9] = test: Bacterial growth assay (OD 630 nm); type: cell-based; settings: Vreelandella aquamarina, 48 h incubation, 10–0.01 μg/mL tested, read-out: MIC against the growth of marine bacteria, H.a.
Text: as §1, §2

Vibrio harveyi [10] = test: Bacterial growth assay (OD 630 nm); type: cell-based; settings: 48 h incubation, 10–0.01 μg/mL tested, read-out: MIC against the growth of marine bacteria, V.h.
Text: as §1, §2

Shewanella putrefaciens [11] = test: Bacterial growth assay (OD 630 nm); type: cell-based; settings: 48 h incubation, 10–0.01 μg/mL tested, read-out: MIC against the growth of marine bacteria, S.p.
Text: as §1, §2

Porphyridium purpureum [12] = test: Microalgal adhesion assay (chlorophyll a); type: cell-based; settings: 120 h, 5 days incubation, 10–0.01 μg/mL tested, read-out: MIC against the adhesion (A) of microalgae, P. purpureum
Text: as §1, §3

[13] = system: Pleurochrysis roscoffensis; test: Microalgal adhesion assay (chlorophyll a); type: cell-based; settings: Chrysotila roscoffensis, 120 h, 5 days incubation, 10–0.01 μg/mL tested, read-out: MIC against the adhesion (A) of microalgae, P. roscoffensis
Text: as §1, §3

Halamphora coffeaeformis [14] = test: Microalgal adhesion assay (chlorophyll a); type: cell-based; settings: Halamphora coffeiformis, 120 h, 5 days incubation, 10–0.01 μg/mL tested, read-out: MIC against the adhesion (A) of microalgae, H. coffeaformis
Text: as §1, §3

Porphyridium purpureum [15] = test: Microalgal growth assay (chlorophyll a); type: cell-based; settings: 120 h, 5 days incubation, 10–0.01 μg/mL tested, read-out: MIC against the growth (G) of microalgae, P. purpureum
Text: as §1, §3

Cylindrotheca closterium [16] = test: Microalgal growth assay (chlorophyll a); type: cell-based; settings: 120 h, 5 days incubation, 10–0.01 μg/mL tested, read-out: MIC against the growth (G) of microalgae, C. closterium
Text: as §1, §3

[17] = system: Pleurochrysis roscoffensis; test: Microalgal growth assay (chlorophyll a); type: cell-based; settings: Chrysotila roscoffensis, 120 h, 5 days incubation, 10–0.01 μg/mL tested, read-out: MIC against the growth (G) of microalgae, P. roscoffensis
Text: as §1, §3

Halamphora coffeaeformis [18] = test: Microalgal growth assay (chlorophyll a); type: cell-based; settings: Halamphora coffeiformis, 120 h, 5 days incubation, 10–0.01 μg/mL tested, read-out: MIC against the growth (G) of microalgae, H. coffeaformis
Text: as §1, §3

Vibrio aestuarianus [19] = settings: ref Trepos et al. ([2015]); cited from earlier work
Vibrio harveyi [20] = settings: ref Trepos et al. ([2015]); cited from earlier work
Vibrio natriegens [21] = settings: ref Trepos et al. ([2015]); cited from earlier work
Vibrio carchariae [22] = settings: ref Trepos et al. ([2015]); cited from earlier work
Halomonas aquamarina [23] = settings: ref Trepos et al. ([2015]); cited from earlier work
[24] = system: Pleurochrysis roscoffensis; settings: ref Trepos et al. ([2015]); cited from earlier work
Vibrio aestuarianus [25] = settings: ref Trepos et al. ([2015]); cited from earlier work; remark: listed apart in the source
Porphyridium purpureum [26] = settings: ref Trepos et al. ([2015]); cited from earlier work
Vibrio proteolyticus [27] = settings: ref Trepos et al. ([2015]); cited from earlier work
Vibrio proteolyticus [28] = settings: ref Trepos et al. ([2015]); cited from earlier work; remark: listed apart in the source
Halamphora coffeaeformis [29] = settings: ref Trepos et al. ([2015]); cited from earlier work
Vibrio harveyi [30] = settings: ref Trepos et al. ([2015]); cited from earlier work; remark: listed apart in the source
Roseobacter litoralis [31] = settings: ref Trepos et al. ([2015]); cited from earlier work
Halamphora coffeaeformis [32] = settings: ref Trepos et al. ([2015]); cited from earlier work; remark: listed apart in the source
Cylindrotheca closterium [33] = settings: ref Trepos et al. ([2015]); cited from earlier work
Cylindrotheca closterium [34] = settings: ref Trepos et al. ([2015]); cited from earlier work; remark: listed apart in the source
Halomonas aquamarina [35] = settings: ref Trepos et al. ([2015]); cited from earlier work; remark: listed apart in the source
[36] = system: Pseudoalteromonas elyakovii; settings: ref Trepos et al. ([2015]); cited from earlier work
Vibrio carchariae [37] = settings: ref Trepos et al. ([2015]); cited from earlier work; remark: listed apart in the source
Shewanella putrefaciens [38] = settings: ref Trepos et al. ([2015]); cited from earlier work
[39] = system: Pleurochrysis roscoffensis; settings: ref Trepos et al. ([2015]); cited from earlier work; remark: listed apart in the source
Porphyridium purpureum [40] = settings: ref Trepos et al. ([2015]); cited from earlier work; remark: listed apart in the source

SMILES: COc1cc(C(Cc2cccc(O)c2)=NO)ccc1O [Compound 13, 1-(3-methoxy-4-hydroxyphenyl)-1-hydroxyimino-2-(3’-hydroxyphenyl)-ethane]
- MIC / activity against the adhesion of all bacteria tested (marine bacteria): displayed inhibitory activities
- MIC (Vibrio aestuarianus [1]): 0.1 µg/mL (≈ 0.366 µM)
- MIC / activity against the attachment and growth of microalgae (microalgae): inhibited both the settlement and growth of all of the tested species
- IC50 [2]: 5 µg/mL (≈ 18.3 µM)
- Toxicity (%) (dead cyprids) ([2]; Balanus improvisus, in vivo, 5 days, 5 μg/mL): 1.6%
- MIC (Vibrio aestuarianus [3]): > 10 µg/mL
- MIC (Vibrio natriegens [4]): 1 µg/mL (≈ 3.66 µM)
- MIC [5]: > 10 µg/mL
- MIC (Roseobacter litoralis [6]): > 10 µg/mL
- MIC (Vibrio carchariae [7]): > 10 µg/mL
- MIC (Vibrio proteolyticus [8]): > 10 µg/mL
- MIC (Halomonas aquamarina [9]): > 10 µg/mL
- MIC (Vibrio harveyi [10]): > 10 µg/mL
- MIC (Shewanella putrefaciens [11]): > 10 µg/mL
- MIC (Porphyridium purpureum [12]): 10 µg/mL (≈ 36.6 µM)
- MIC [13]: 1 µg/mL (≈ 3.66 µM)
- MIC (Halamphora coffeaeformis [14]): 0.01 µg/mL (≈ 0.0366 µM)
- MIC (Porphyridium purpureum [15]): 1 µg/mL (≈ 3.66 µM)
- MIC (Cylindrotheca closterium [16]): 1 µg/mL (≈ 3.66 µM)
- MIC [17]: 0.1 µg/mL (≈ 0.366 µM)
- MIC (Halamphora coffeaeformis [18]): 0.1 µg/mL (≈ 0.366 µM)

SMILES: CCCCCCCCn1sc(Cl)c(Cl)c1=O [Sea-nine™]
- MIC against the growth of marine bacteria, V.a. (Vibrio aestuarianus [19]): < 0.01 µg/mL
- MIC against the adhesion of marine bacteria, V.h. (Vibrio harveyi [20]): 1 µg/mL
- MIC against the growth of marine bacteria, V.n. (Vibrio natriegens [21]): 1 µg/mL
- MIC against the growth of marine bacteria, V.c. (Vibrio carchariae [22]): < 0.01 µg/mL
- MIC against the adhesion of marine bacteria, H.a. (Halomonas aquamarina [23]): < 0.01 µg/mL
- MIC against the adhesion (A) of microalgae, P. roscoffensis [24]: < 0.01 µg/mL
- MIC against the adhesion of marine bacteria, V.a. (Vibrio aestuarianus [25]): 1 µg/mL
- MIC against the growth (G) of microalgae, P. purpureum (Porphyridium purpureum [26]): < 0.01 µg/mL
- IC50 [2]: 0.25 µg/mL (≈ 0.886 µM)
- MIC against the growth of marine bacteria, V.p. (Vibrio proteolyticus [27]): 0.01 µg/mL
- MIC against the adhesion of marine bacteria, V.p. (Vibrio proteolyticus [28]): 0.01 µg/mL
- MIC against the growth (G) of microalgae, H. coffeaformis (Halamphora coffeaeformis [29]): < 0.01 µg/mL
- MIC against the growth of marine bacteria, V.h. (Vibrio harveyi [30]): 1 µg/mL
- MIC against the growth of marine bacteria, R.l. (Roseobacter litoralis [31]): 1 µg/mL
- MIC against the adhesion (A) of microalgae, H. coffeaformis (Halamphora coffeaeformis [32]): < 0.01 µg/mL
- MIC against the growth (G) of microalgae, C. closterium (Cylindrotheca closterium [33]): < 0.01 µg/mL
- MIC against the adhesion (A) of microalgae, C. closterium (Cylindrotheca closterium [34]): < 0.01 µg/mL
- MIC against the growth of marine bacteria, H.a. (Halomonas aquamarina [35]): 0.1 µg/mL
- MIC against the growth of marine bacteria, P.e. [36]: 0.1 µg/mL
- MIC against the adhesion of marine bacteria, V.c. (Vibrio carchariae [37]): < 0.01 µg/mL
- MIC against the growth of marine bacteria, S.p. (Shewanella putrefaciens [38]): 1 µg/mL
- MIC against the growth (G) of microalgae, P. roscoffensis [39]: < 0.01 µg/mL
- MIC against the adhesion (A) of microalgae, P. purpureum (Porphyridium purpureum [40]): < 0.01 µg/mL

From article PMC5889410, “Design and Biological Evaluation of Antifouling Dihydrostilbene Oxime Hybrids” (Marine Biotechnology (New York, N.y.), 2018)
